Marks after values point to notes of the source that are not given here.
Legend:
Assay type in all cases: in vivo, human
[1] = Phase 1 SAD/MAD study of inhaled compound 1 in healthy subjects
Description: This was a phase 1, 2-part, double-blind, randomized, placebo controlled, sponsor-open, SAD (Part A) and MAD (Part B). Subjects participated in only 1 cohort in only 1 study part.
Part A (SAD) consisted of three (3) cohorts of 8 healthy subjects (6 active and 2 placebo). In each cohort, subjects received a single inhaled dose of compound 1 or placebo. […] Cardiodynamic monitoring via Holter monitors was conducted pre-dose and for at least 24 hours following dosing on Day 1 in each cohort, with rest periods for cardiodynamic electrocardiogram (ECG) extractions time matched to the PK sampling time points.
Part B (MAD) consisted of three (3) cohorts of 10 healthy subjects (8 active and 2 placebo). In each cohort, subjects received inhaled doses once daily (QD) for 7 days. […] Blood samples for PK assessment were also collected pre-dose on the morning of Days 3 through 6. Cardiodynamic monitoring via Holter monitors may be conducted pre-dose on Day 1 and pre-dose and for at least 24 hours following dosing on the morning of Day 7 in each cohort with rest periods for cardiodynamic ECG extractions time matched to the PK sampling time points.
In Parts A and B, safety data (i.e., physical examinations, vital signs, 12-lead safety ECGs, spirometry, clinical laboratory tests, and adverse events [AEs]) were assessed throughout the study; and blood and urine samples were collected for safety assessments. All subjects who received at least one dose of study drug (including subjects who terminated the study early) returned to the CRU 7 (±2) days after the last study drug administration for follow-up procedures, and to determine if any AEs have occurred since the last study visit.
In Part B, subjects received inhaled doses QD for 7 days using a nebulizer device.
Morning doses on Days 1 and 7 were administered under fasting conditions due to cardiodynamic monitoring. On all other times, doses were administered at least 30 minutes after completion of a meal or snack. Hour 0 was defined as the beginning of inhalation in each morning dose administration.

[2] = system: acute lung injury associated with COVID-19; assay: Phase 2 study Part 1, multiple ascending dose in hospitalized COVID-19 patients; settings: for subjects discharged from the hospital: by Day 21 (placebo 50%); for # Subjects Alive: Part 1, COVID-19 patients
[3] = system: acute lung injury associated with COVID-19; assay: Phase 2 study Part 2, 3 mg vs placebo in hospitalized COVID-19 patients; settings: for time to recovery, median: placebo 11
Description: Eligible subjects were stratified by age (≤60 vs >60 years) and concurrent use of antiviral medications (e.g., remdesivir, lopinavir, chloroquine) at baseline. […] Approximately 20% of participants were enrolled with a baseline clinical status score of six (NIPPV or high flow oxygen device) based on the 8-point ordinal scale (Table 13).
The study drug was administered at 3 mg once-daily in a single dose with an additional 3 mg loading dose on day 1, for up to 7 days or until discharge from the hospital, whichever was earlier. Subjects were followed for up to 28 days or until death, whichever was earlier.
Matching placebo was administered once daily for up to 7 days, via inhalation using a vibrating mesh nebulizer.
In Part 2, the primary endpoint was the number of RFDs from randomization through Day 28. Secondary Endpoints were: change from baseline in SaO2/FiO2 ratio on Day 7, proportion of subjects in each category of the 8-point clinical status scale on Days 7, 14, 21 and 28, and proportion of subjects alive and respiratory failure-free on Day 28. […] Additional exploratory endpoints may include: change from baseline in SaO2/FiO2 ratio in mmHg on Day 7, number of VFDs from randomization to Day 28, proportion of subjects with a SaO2/FiO2 ratio >300 on Days 5 and 7, proportion of subjects in each category of the 6-point clinical status scale on Days 7, 14, 21 and 28, proportion of subjects in each category of vital status (death, discharge, hospitalized) on Days 7, 14, 21 and 28, proportion of subjects with an oxygen saturation >90% on room air, proportion of subjects with fever (>37° C. oral or equivalent), chest imaging (when done for clinical care reasons), biomarkers including: nasal SARS-CoV-2 viral load. The safety endpoints were: change from baseline in vital signs and clinical laboratory results, and incidence and severity of TEAEs. The PK endpoints were population PK parameters for compound 1.
The primary endpoint was the number of respiratory failure-free days (RFDs) from randomization through Day 28. A RFD was defined as a day that a subject is alive and not requiring the use of invasive mechanical ventilation, non-invasive positive pressure ventilation, high-flow oxygen devices, or oxygen supplementation from randomization through Day 28. A clinical status score of <4 (Table 13) was equivalent to a respiratory failure-free day. The number of RFDs was 0 for subjects who use respiratory support for 28 days or longer, or for subjects who died on or before Day 28.
Treatment comparisons were performed using a Van Elteren test (a stratified Wilcoxon rank sum test) adjusting for stratification factors. Treatment difference were summarized based on median of RFD between compound 1 and placebo. Additional prognostic baseline covariates (e.g., comorbidities) were included in the sensitivity analyses.
For SaO2/FiO2, treatment comparisons versus placebo were conducted using a mixed-model repeated measures (MMRM) model. The model included fixed effects for randomized treatment group, study day (Day 7, 14, 21 and 28), treatment group by study day interaction, baseline SaO2/FiO2 ratio, treatment group by baseline SaO2/FiO2 ratio interaction, and stratification factors (baseline age group ≤60 vs >60 years, and concurrent use of antiviral medication at baseline Yes vs. No). A random effect for subject was also included in the model. An unstructured covariance matrix was used to estimate covariance of within-patient scores. The Kenward-Roger approximation was used to estimate denominator degrees of freedom. From this model, least squares means, standard errors, treatment differences in LS means, and 95% confidence intervals (CIs) were estimated.

[4] = single and multiple inhaled doses
[5] = Part 1, 1 mg QD inhaled, Day 28
[6] = Part 1, 3 mg QD inhaled, Day 28
[7] = Part 1, 10 mg QD inhaled, Day 28

CCc1cc(O)ccc1-c1ccc2c(-c3nc4c([nH]3)CN(C(C)C)[C@H](C(=O)N3CC(N(C)C)C3)C4)n[nH]c2c1 [Compound 1, (S)-(3-(dimethylamino)azetidin-1-yl)(2-(6-(2-ethyl-4-hydroxyphenyl)-1H-indazol-3-yl)-5-isopropyl-4,5,6,7-tetrahydro-3H-imidazo[4,5-c]pyridin-6-yl)methanone]
AUC0-24 ([1]; 1 mg QD inhaled, Day 1): 18.42 ng·h/mL
Cmax ([1]; 1 mg QD inhaled, Day 7): 5.699 ng/mL
Tmax [1, 4]: approximately 1 hour
terminal elimination half-life [1, 4]: approximately 24 hours
t1/2 ([1]; single inhaled dose 3 mg, mean (SD)): 24.73 (2.802) hr
Still in Hospital at Day 28 ([2]; Part 1, 1 mg): 0 subjects (%)
Died (All-Cause Mortality) ([2]; Part 1, 1 mg QD inhaled): 1 (16.7%) subjects (%)
# Subjects Respiratory Failure-Free [2, 5]: 5 (83.3%) subjects (%)
Proportion of Subjects Alive and Respiratory Failure-free [2, 5]: 5 (83.3%) subjects (%)
deaths observed ([2]; Part 1, 1 mg group): one
Hospital Discharge ([2]; Part 1, 1 mg, Day 7): 0 subjects (%)
Hospital Discharge ([2]; Part 1, 1 mg, Day 14): 2 (33.3%) subjects (%)
Hospital Discharge ([2]; Part 1, 1 mg, Day 21): 3 (50.0%) subjects (%)
Clinical Status 1-Not hospitalized, no limitations on activities ([2]; Part 1, 1 mg, Day 28): 5 (83.3%) subjects (%)
Clinical Status 2-Not hospitalized, but with limitations on activities and/or requiring home oxygen ([2]; Part 1, 1 mg, Day 28): 0 subjects (%)
Clinical Status 3-Hospitalized, not requiring supplemental oxygen, and no longer requiring ongoing medical care ([2]; Part 1, 1 mg, Day 28): 0 subjects (%)
Clinical Status 4-Hospitalized, not requiring supplemental oxygen, but requiring ongoing medical care ([2]; Part 1, 1 mg, Day 28): 0 subjects (%)
Clinical Status 5-Hospitalized, requiring supplemental oxygen ([2]; Part 1, 1 mg, Day 28): 0 subjects (%)
Clinical Status 6-Hospitalized, on non-invasive ventilation or high-flow oxygen devices ([2]; Part 1, 1 mg, Day 28): 0 subjects (%)
Clinical Status 7-Hospitalized, on invasive mechanical ventilation or extracorporeal membrane oxygenation ([2]; Part 1, 1 mg, Day 28): 0 subjects (%)
Clinical Status 8-Death ([2]; Part 1, 1 mg, Day 28): 1 (16.7%) subjects (%)
Hospital Discharge ([2]; Part 1, 1 mg, Day 28): 5 (83.3%) subjects (%)
Still in Hospital at Day 28 ([2]; Part 1, 3 mg): 0 subjects (%)
Died (All-Cause Mortality) ([2]; Part 1, 3 mg QD inhaled): 0 subjects (%)
# Subjects Respiratory Failure-Free [2, 6]: 6 (85.7%)* subjects (%)
Proportion of Subjects Alive and Respiratory Failure-free [2, 6]: 6 (85.7%)* subjects (%)
Hospital Discharge ([2]; Part 1, 3 mg, Day 7): 1 (14.3%) subjects (%)
Hospital Discharge ([2]; Part 1, 3 mg, Day 14): 2 (28.6%) subjects (%)
Hospital Discharge ([2]; Part 1, 3 mg, Day 21): 6 (85.7%) subjects (%)
Clinical Status 1-Not hospitalized, no limitations on activities ([2]; Part 1, 3 mg, Day 28): 5 (83.3%) subjects (%)
Clinical Status 2-Not hospitalized, but with limitations on activities and/or requiring home oxygen ([2]; Part 1, 3 mg, Day 28): 0 subjects (%)
Clinical Status 3-Hospitalized, not requiring supplemental oxygen, and no longer requiring ongoing medical care ([2]; Part 1, 3 mg, Day 28): 0 subjects (%)
Clinical Status 4-Hospitalized, not requiring supplemental oxygen, but requiring ongoing medical care ([2]; Part 1, 3 mg, Day 28): 1 (16.7%) subjects (%)
Clinical Status 5-Hospitalized, requiring supplemental oxygen ([2]; Part 1, 3 mg, Day 28): 0 subjects (%)
Clinical Status 6-Hospitalized, on non-invasive ventilation or high-flow oxygen devices ([2]; Part 1, 3 mg, Day 28): 0 subjects (%)
Clinical Status 7-Hospitalized, on invasive mechanical ventilation or extracorporeal membrane oxygenation ([2]; Part 1, 3 mg, Day 28): 0 subjects (%)
Clinical Status 8-Death ([2]; Part 1, 3 mg, Day 28): 0 subjects (%)
Hospital Discharge ([2]; Part 1, 3 mg, Day 28): 7 (100%) subjects (%)
subjects discharged from the hospital ([2]; Part 1, 3 mg): 86%
Still in Hospital at Day 28 ([2]; Part 1, 10 mg): 0 subjects (%)
Died (All-Cause Mortality) ([2]; Part 1, 10 mg QD inhaled): 0 subjects (%)
# Subjects Respiratory Failure-Free [2, 7]: 6 (100.0%) subjects (%)
Proportion of Subjects Alive and Respiratory Failure-free [2, 7]: 6 (100.0%) subjects (%)
Hospital Discharge ([2]; Part 1, 10 mg, Day 7): 0 subjects (%)
Hospital Discharge ([2]; Part 1, 10 mg, Day 14): 2 (33.3%) subjects (%)
Hospital Discharge ([2]; Part 1, 10 mg, Day 21): 6 (100%) subjects (%)
Clinical Status 1-Not hospitalized, no limitations on activities ([2]; Part 1, 10 mg, Day 28): 5 (83.3%) subjects (%)
Clinical Status 2-Not hospitalized, but with limitations on activities and/or requiring home oxygen ([2]; Part 1, 10 mg, Day 28): 1 (16.7%) subjects (%)
Clinical Status 3-Hospitalized, not requiring supplemental oxygen, and no longer requiring ongoing medical care ([2]; Part 1, 10 mg, Day 28): 0 subjects (%)
Clinical Status 4-Hospitalized, not requiring supplemental oxygen, but requiring ongoing medical care ([2]; Part 1, 10 mg, Day 28): 0 subjects (%)
Clinical Status 5-Hospitalized, requiring supplemental oxygen ([2]; Part 1, 10 mg, Day 28): 0 subjects (%)
Clinical Status 6-Hospitalized, on non-invasive ventilation or high-flow oxygen devices ([2]; Part 1, 10 mg, Day 28): 0 subjects (%)
Clinical Status 7-Hospitalized, on invasive mechanical ventilation or extracorporeal membrane oxygenation ([2]; Part 1, 10 mg, Day 28): 0 subjects (%)
Clinical Status 8-Death ([2]; Part 1, 10 mg, Day 28): 0 subjects (%)
Hospital Discharge ([2]; Part 1, 10 mg, Day 28): 6 (100%) subjects (%)
subjects discharged from the hospital ([2]; Part 1, 10 mg): 100%
# Subjects Alive ([2]; 1 mg QD inhaled, Day 28): 5 (83.3%) subjects (%)
# Subjects Alive ([2]; 3 mg QD inhaled, Day 28): 7 (100.0%)* subjects (%)
# Subjects Alive ([2]; 10 mg QD inhaled, Day 28): 6 (100.0%) subjects (%)
trend vs placebo in oxygenation, clinical status, mortality, respiratory-failure free, time to discharge, Borg Dyspnea Score ([2]; Part 1, all compound 1 groups): positive trend
trend in reduction of inflammation markers (hsCRP, IFN-g, IL-6, IP-10) and RAGE ([2]; Part 1, mostly 3 mg and 10 mg doses): positive trend
plasma exposure ([3]; Part 2): low
tolerability ([3]; Part 2): well-tolerated
serious infections, patients ([3]; Part 2, placebo 2.0%): 1.0%
venous thromboembolism, patients ([3]; Part 2, placebo 4.9%): none
adverse events of liver abnormalities or disease, patients ([3]; Part 2, placebo 7.8%): 9.7%
patients discontinued from study, withdrawal for adverse event ([3]; Part 2, placebo 13 (12.7%)): 8 (7.8%) n (%)
serious adverse events, patients ([3]; Part 2, placebo 15.7%): 9.7%
adverse events, patients ([3]; Part 2, placebo 41.2%): 34.0%
secondary endpoints vs placebo: change in SaO2/FiO2 at Day 7, 8-point Clinical Status, alive and respiratory failure-free at Day 28 ([3]; Part 2 ITT): no difference
28-day all-cause mortality HR ([3]; Part 2 ITT vs placebo, p=0.08): 0.42
time to recovery HR ([3]; Part 2 ITT vs placebo, p=0.12): 1.27
RFDs from randomization through Day 28, median ([3]; Part 2 ITT, 3 mg QD, placebo 21, p=0.61): 21 days
time to recovery, median ([3]; Part 2 ITT): 10 days
28-day all-cause mortality, total number of deaths ([3]; Part 2 ITT, placebo 13): 6
28-day all-cause mortality HR ([3]; Part 2 post-hoc, baseline CRP <150 mg/L vs placebo, p=0.009): 0.097
time to recovery HR ([3]; Part 2 post-hoc, baseline CRP <150 mg/L vs placebo, p=0.02): 1.48
28-day all-cause mortality, total number of deaths ([3]; Part 2 post-hoc, baseline CRP <150 mg/L, placebo 9): 1
time to recovery, median ([3]; Part 2 post-hoc, baseline CRP <150 mg/L): 10 days
time to recovery or 28-day all-cause mortality vs placebo ([3]; Part 2 post-hoc, baseline CRP >150 mg/L (n=30)): no difference

From US20230021647A1, “METHOD OF TREATING A PATIENT INFECTED WITH A CORONAVIRUS AND HAVING A BASELINE LEVEL OF CRP BELOW 150 MG/L” (Theravance Biopharma R&D IP, LLC, priority 2021, published 2023)
